# In US10028960B2, “Pyrimidine compounds as JAK kinase inhibitors” (THERAVANCE BIOPHARMA R&D IP, LLC, priority 2016, dated 2018):
# pKi: −log10 of the molar value. Like-named read-outs stand apart in the source and are kept apart here.
# Legend:
# [1] = tested on: IL-13 induced STAT6 phosphorylation in HT-29 human colorectal adenocarcinoma cells; assay: Cellular JAK potency assay: inhibition of IL-13 induced STAT6 phosphorylation; format: cell-based; settings: IL-13 induced STAT6 phosphorylation, HT-29 cells; for IC50: Homo sapiens, read-out: HT-29 (pIC50) (converted)
# Description: The potency of test compounds for inhibition of the JAK-dependent cytokine interleuken-13 (IL-13) was assessed by measuring IL-13 (IL-13, R&D Systems) induced STAT6 phosphorylation in HT-29 human colorectal adenocarcinoma cells (ATCC).
# The anti-STAT6 antibody (Cell Signaling Technologies) was conjugated to AlphaScreen acceptor beads (Perkin Elmer), while the anti-pSTAT6 (pTyr641) antibody (Cell Signaling Technologies) was biotinylated using EZ-Link Sulfo-NHS-Biotin (Thermo Scientific).
# HT-29 cells were grown at 37° C. in a 5% CO2 humidified incubator in McCoy's 5a Modified medium (ATCC) supplemented with 10% FBS (Hyclone), 100 U/mL penicillin, 100 μg/mL streptomycin (Life Technologies), and 2 mM GlutaMAX (Life Technologies). On day 1 of the assay, cells were seeded at a 7,500 cells/well density in white poly-D-lysine-coated 384-well plates (Corning) with 25 μL medium, and were allowed to adhere overnight in the incubator. On day 2 of the assay, the medium was removed and replaced with 12 μL of assay buffer (Hank's Balanced Salt Solution/HBSS, 25 mM HEPES, and 1 mg/ml bovine serum albumin/BSA) containing dose-responses of test compounds. Compounds were serially diluted in DMSO and then diluted another 1000-fold in media to bring the final DMSO concentration to 0.1%. Cells were incubated with test compounds at 37° C. for 1 h, and followed by the addition of 12 μL of pre-warmed IL-13 (12 ng/ml in assay buffer) for stimulation. After incubating at 37° C. for 30 min, the assay buffer (containing compound and IL-13) was removed, and 10 μL of cell lysis buffer (25 mM HEPES, 0.1% SDS, 1% NP-40, 5 mM MgCl2, 1.3 mM EDTA, 1 mM EGTA, and supplement with Complete Ultra mini protease inhibitors and PhosSTOP from Roche Diagnostics). The plates were shaken at ambient temperature for 30 min before the addition of detection reagents. A mixture of biotin-anti-pSTAT6 and anti-STAT6 conjugated acceptor beads was added first and incubated at ambient temperature for 2 h, followed by the addition of streptavidin conjugated donor beads (Perkin Elmer). After a minimum of 2 h incubation, the assay plates were read on the EnVision plate reader.
# Results were expressed as the negative logarithm of the IC50 value, pIC50.
# [2] = biological target: JAK2 (Homo sapiens (Human), UniProt O60674); assay: LanthaScreen JAK biochemical assay, JAK2; settings: for Ki: read-out: JAK 2 (pKi) (converted)
# Sequence of JAK2 (O60674 whole entry): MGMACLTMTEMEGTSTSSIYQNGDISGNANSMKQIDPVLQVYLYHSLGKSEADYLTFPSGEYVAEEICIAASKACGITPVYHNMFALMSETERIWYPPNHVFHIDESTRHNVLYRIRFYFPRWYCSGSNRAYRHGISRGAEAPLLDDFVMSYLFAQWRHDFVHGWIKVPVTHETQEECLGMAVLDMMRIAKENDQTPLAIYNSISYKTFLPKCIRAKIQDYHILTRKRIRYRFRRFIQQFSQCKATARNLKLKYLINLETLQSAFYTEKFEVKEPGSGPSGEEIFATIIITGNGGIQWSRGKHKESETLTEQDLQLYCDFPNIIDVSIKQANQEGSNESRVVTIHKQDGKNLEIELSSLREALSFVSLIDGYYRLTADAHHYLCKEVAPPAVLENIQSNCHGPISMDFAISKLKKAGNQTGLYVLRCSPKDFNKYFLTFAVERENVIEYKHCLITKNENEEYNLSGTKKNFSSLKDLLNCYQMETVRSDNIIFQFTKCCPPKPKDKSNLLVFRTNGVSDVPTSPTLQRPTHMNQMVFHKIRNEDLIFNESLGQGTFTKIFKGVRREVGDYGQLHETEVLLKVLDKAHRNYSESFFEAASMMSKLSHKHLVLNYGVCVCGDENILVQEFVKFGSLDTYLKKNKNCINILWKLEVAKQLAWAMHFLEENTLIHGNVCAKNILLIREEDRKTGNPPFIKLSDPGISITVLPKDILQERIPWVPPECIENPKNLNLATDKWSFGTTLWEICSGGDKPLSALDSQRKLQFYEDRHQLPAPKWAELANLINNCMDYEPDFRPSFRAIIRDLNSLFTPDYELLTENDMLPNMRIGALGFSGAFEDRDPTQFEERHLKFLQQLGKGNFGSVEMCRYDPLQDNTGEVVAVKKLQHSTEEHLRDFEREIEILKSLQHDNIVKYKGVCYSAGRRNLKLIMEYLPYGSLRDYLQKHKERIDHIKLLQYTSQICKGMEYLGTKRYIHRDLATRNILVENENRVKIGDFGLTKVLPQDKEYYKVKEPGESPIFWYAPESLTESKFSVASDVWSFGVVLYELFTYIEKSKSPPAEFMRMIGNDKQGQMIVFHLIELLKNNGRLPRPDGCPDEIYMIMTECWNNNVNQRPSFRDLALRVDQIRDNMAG
# Description: (§1) A panel of four LanthaScreen JAK biochemical assays (JAK1, 2, 3 and Tyk2) were carried in a common kinase reaction buffer (50 mM HEPES, pH 7.5, 0.01% Brij-35, 10 mM MgCl2, and 1 mM EGTA). Recombinant GST-tagged JAK enzymes and a GFP-tagged STAT1 peptide substrate were obtained from Life Technologies.
# [3] = biological target: JAK3 (Homo sapiens (Human), UniProt P52333); assay: LanthaScreen JAK biochemical assay, JAK3; settings: for Ki: read-out: JAK 3 (pKi) (converted)
# Sequence of JAK3 (P52333 whole entry): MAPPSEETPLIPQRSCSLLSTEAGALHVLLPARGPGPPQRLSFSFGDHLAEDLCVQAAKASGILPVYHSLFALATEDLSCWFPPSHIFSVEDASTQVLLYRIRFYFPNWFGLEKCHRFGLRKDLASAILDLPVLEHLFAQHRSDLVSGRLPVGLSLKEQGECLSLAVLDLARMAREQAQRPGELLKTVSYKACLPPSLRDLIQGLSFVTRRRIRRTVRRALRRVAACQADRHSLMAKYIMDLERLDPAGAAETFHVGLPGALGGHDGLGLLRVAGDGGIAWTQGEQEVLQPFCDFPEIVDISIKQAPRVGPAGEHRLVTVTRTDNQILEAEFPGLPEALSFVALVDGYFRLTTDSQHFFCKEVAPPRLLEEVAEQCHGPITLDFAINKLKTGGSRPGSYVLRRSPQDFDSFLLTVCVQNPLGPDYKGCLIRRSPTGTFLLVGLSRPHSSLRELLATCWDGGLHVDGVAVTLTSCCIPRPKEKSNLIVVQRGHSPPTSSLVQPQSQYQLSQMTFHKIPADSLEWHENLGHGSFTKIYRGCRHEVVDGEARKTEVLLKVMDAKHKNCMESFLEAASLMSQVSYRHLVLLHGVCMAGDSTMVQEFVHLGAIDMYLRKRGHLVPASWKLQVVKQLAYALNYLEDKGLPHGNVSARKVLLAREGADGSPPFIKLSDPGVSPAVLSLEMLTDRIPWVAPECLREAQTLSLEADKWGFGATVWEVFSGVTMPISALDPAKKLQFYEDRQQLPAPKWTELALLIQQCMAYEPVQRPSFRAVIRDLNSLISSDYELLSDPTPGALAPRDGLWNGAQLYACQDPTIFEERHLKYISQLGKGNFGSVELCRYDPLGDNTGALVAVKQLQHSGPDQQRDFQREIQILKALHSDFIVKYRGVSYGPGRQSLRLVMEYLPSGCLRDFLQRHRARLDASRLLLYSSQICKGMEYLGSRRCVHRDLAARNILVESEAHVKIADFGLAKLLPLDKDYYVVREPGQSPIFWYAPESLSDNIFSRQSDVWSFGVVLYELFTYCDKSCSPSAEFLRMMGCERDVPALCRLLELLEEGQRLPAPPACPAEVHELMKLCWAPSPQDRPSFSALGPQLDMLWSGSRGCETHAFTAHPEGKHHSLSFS
# Description: as §1
# [4] = biological target: Tyk2 (Homo sapiens (Human), UniProt P29597); assay: LanthaScreen JAK biochemical assay, Tyk2; settings: for Ki: read-out: Tyk 2 (pKi) (converted)
# Sequence of Tyk2 (P29597 whole entry): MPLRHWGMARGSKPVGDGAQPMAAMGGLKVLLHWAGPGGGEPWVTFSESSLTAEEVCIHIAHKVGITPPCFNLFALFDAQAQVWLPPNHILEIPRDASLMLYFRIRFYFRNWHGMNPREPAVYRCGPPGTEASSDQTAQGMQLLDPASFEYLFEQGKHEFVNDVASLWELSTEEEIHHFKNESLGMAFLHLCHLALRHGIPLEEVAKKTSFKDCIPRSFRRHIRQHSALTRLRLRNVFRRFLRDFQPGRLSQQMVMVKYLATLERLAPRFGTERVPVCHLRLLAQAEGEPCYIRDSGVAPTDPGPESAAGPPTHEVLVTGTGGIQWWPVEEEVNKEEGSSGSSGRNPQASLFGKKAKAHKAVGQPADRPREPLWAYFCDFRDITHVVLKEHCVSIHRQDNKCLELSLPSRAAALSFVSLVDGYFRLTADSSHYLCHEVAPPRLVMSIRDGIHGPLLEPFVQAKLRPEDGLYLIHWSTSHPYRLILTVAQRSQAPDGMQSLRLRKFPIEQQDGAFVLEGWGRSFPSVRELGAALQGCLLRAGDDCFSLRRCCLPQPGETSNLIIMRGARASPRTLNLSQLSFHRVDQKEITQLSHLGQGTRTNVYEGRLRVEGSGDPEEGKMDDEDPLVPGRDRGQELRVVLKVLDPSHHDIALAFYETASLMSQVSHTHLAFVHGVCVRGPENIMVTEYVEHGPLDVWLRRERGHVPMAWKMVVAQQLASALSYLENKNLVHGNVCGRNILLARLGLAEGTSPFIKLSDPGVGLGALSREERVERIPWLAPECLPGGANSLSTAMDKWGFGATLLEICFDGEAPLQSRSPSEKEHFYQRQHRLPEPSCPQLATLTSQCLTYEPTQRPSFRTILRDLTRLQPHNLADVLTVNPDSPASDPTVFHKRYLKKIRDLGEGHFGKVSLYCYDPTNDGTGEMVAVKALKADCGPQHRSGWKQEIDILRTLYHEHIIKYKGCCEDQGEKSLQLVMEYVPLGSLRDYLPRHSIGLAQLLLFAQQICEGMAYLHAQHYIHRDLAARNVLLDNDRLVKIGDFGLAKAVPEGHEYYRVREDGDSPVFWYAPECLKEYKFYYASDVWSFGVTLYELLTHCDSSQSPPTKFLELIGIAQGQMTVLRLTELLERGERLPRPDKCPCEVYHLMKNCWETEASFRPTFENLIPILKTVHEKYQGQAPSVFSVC
# Description: as §1
# [5] = biological target: JAK1 (Homo sapiens (Human), UniProt P23458); assay: LanthaScreen JAK biochemical assay, JAK1; settings: for Ki: read-out: JAK 1 (pKi) (converted)
# Sequence of JAK1 (P23458 whole entry): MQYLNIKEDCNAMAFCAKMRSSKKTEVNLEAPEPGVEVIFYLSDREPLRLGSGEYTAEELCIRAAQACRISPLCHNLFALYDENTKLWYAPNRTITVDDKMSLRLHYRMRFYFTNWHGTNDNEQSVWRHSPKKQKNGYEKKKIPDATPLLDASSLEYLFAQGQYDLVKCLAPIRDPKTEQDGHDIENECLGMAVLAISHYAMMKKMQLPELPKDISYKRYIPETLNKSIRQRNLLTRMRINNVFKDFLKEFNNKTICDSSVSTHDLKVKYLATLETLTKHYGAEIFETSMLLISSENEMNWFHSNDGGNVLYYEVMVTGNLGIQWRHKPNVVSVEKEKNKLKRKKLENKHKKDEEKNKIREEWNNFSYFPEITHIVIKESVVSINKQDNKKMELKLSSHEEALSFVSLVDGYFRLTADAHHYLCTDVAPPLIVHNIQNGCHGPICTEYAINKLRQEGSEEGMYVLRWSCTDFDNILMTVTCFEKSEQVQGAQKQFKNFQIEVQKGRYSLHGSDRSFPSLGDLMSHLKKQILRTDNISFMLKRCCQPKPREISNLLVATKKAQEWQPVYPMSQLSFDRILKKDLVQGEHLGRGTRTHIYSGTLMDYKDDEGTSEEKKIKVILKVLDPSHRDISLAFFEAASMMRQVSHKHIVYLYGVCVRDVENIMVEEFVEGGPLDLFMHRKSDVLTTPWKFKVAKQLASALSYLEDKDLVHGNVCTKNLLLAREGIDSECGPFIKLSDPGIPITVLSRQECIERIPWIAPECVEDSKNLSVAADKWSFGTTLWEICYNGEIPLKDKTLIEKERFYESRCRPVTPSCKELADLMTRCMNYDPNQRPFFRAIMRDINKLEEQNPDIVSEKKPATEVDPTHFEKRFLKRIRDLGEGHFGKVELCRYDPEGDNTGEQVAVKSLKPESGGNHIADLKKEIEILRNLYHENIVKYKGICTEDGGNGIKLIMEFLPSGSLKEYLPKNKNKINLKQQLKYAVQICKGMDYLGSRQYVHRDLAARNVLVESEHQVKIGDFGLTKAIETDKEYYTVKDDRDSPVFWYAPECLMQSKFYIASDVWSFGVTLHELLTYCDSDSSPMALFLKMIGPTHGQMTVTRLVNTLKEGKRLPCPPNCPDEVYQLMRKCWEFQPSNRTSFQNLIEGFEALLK
# Description: as §1
# [6] = Determination of absorption in cannulated rats; format: in vivo, Sprague Dawley rats; settings: rat, oral, portal vein
# Description: Oral bioavailability (F %), fraction absorbed (Fa %) and fraction escaping hepatic clearance (Fh %) were determined in Sprague Dawley rats from the following two studies:
# (1) Pharmacokinetics in rats following an IV dose of test compound: Following IV dosing, plasma samples were typically collected from 0-6 hr. Drug levels were determined using an LC-MS-MS method. The resulting drug levels were used to compute the IV pharmacokinetic parameters: AUC IV and Dose IV.
# (2) Rats that have been cannulated in their portal vein (PV) and also in their jugular vein (JV) were dosed orally with test compound. Following oral dosing, plasma samples were typically collected from 0-6 hr from both the portal vein and the jugular vein. Drug levels were determined using an LC-MS-MS method. The resulting drug levels were used to compute the following pharmacokinetic parameters: AUC PO PV, AUC PO JV, and Dose PO.
# Using data derived from the above studies, the oral bioavailability F %, and the quantities Fa % and Fh % were calculated from the following formulas: F %=(AUC PO JV/AUC IV)*(Dose IV/Dose PO)*100 Fa %=(AUC PO PV/AUC IV)*(Dose IV/Dose PO)*100 Fh %=AUC PO JV/AUC PO PV
# AUC PO JV=Area under the curve following oral dose and plasma collected from the jugular vein
# AUC PO PV=Area under the curve following oral dose and plasma collected from the portal vein
# AUC IV=Area under the curve following an intravenous dose
# Dose IV=Intravenous Dose in mg/kg
# Dose PO=Oral Dose in mg/kg
Structure (SMILES),IC50 [1] [nM],Ki [2] [nM],Ki [3] [nM],Ki [4] [nM],pKi [5],Ki [5] [nM],HT-29 (pIC50) [1],JAK 2 (pKi) [2],JAK 3 (pKi) [3],Tyk 2 (pKi) [4],JAK 1 (pKi) [5],absorption at the portal vein (Fa %) [6]
"COc1cc(Nc2cc(CO)[nH]n2)nc(N(C)[C@@H]2C[C@H]3CC[C@@H](C2)N3CCC#N)n1 [Example 5, 3-((1R,3s,5S)-3-((4-((5-(hydroxymethyl)-1H-pyrazol-3-yl)amino)-6-methoxypyrimidin-2-yl)(methyl)amino)-8-azabicyclo[3.2.1]octan-8-yl)-propanenitrile]",200 to 1000,0.1 to 1,10 to 31.6,1 to 10,9.00 to 10.00,,,,,,,
"COc1cc(Nc2cc(CO)[nH]n2)nc(N(C)[C@@H]2C[C@H]3CCC[C@@H](C2)N3C(=O)OCC(C)C)n1 [Example 8, Isobutyl (1R,3s,5S)-3-((4-((5-(hydroxymethyl)-1H-pyrazol-3-yl)amino)-6-methoxypyrimidin-2-yl)(methyl)amino)-9-azabicyclo[3.3.1]nonane-9-carboxylate]",31.6 to 200,0.1 to 1,1 to 10,0.1 to 1,,0.1 to 1,,,,,,
"COc1cc(Nc2cc(CO)[nH]n2)nc(N(C)[C@@H]2C[C@H]3CCC[C@@H](C2)N3S(=O)(=O)c2ccccc2)n1 [Example 1-16, (3-((6-methoxy-2-(methyl((1R,3s,5S)-9-(phenylsulfonyl)-9-azabicyclo[3.3.1]nonan-3-yl)amino)pyrimidin-4-yl)amino)-1H-pyrazol-5-yl)methanol]",,,,,,,B (B represents a pIC50 value between 6.7 and 7.5 (IC50 between 200 nM and 32 nM)),B (B represents a pKi value between 9 and 10 (Ki between 1 nM and 0.1 nM)),C (C represents a pKi value between 8 and 9 (Ki between 10 nM and 1 nM)),B (B represents a pKi value between 9 and 10 (Ki between 1 nM and 0.1 nM)),B (B represents a pKi value between 9 and 10 (Ki between 1 nM and 0.1 nM)),
"COc1cc(Nc2cc(CO)[nH]n2)nc(N(C)[C@@H]2C[C@H]3CCC[C@@H](C2)N3S(=O)(=O)C2CC2)n1 [Example 1-14, (3-((2-(((1R,3s,5S)-9-(cyclopropylsulfonyl)-9-azabicyclo[3.3.1]nonan-3-yl)(methyl)amino)-6-methoxypyrimidin-4-yl)amino)-1H-pyrazol-5-yl)methanol]",,,,,,,A (A represents a pIC50 value≥7.5 (IC50≤32 nM)),A (A represents a pKi value≥10 (Ki≤0.1 nM)),C (C represents a pKi value between 8 and 9 (Ki between 10 nM and 1 nM)),B (B represents a pKi value between 9 and 10 (Ki between 1 nM and 0.1 nM)),B (B represents a pKi value between 9 and 10 (Ki between 1 nM and 0.1 nM)),
"COc1cc(Nc2cc(CO)[nH]n2)nc(N(C)[C@@H]2C[C@H]3CCC[C@@H](C2)N3S(C)(=O)=O)n1 [Example 3, (3-((6-methoxy-2-(methyl((1R,3s,5S)-9-(methylsulfonyl)-9-azabicyclo[3.3.1]nonan-3-yl)amino)pyrimidin-4-yl)amino)-1H-pyrazol-5-yl)methanol]",31.6 to 200,,1 to 10,0.1 to 1,,0.1 to 1,,A (A represents a pKi value≥10 (Ki≤0.1 nM)),,,,greater than 40%
"COc1cc(Nc2cc(CO)[nH]n2)nc(N(C)[C@@H]2C[C@H]3CCC[C@@H](C2)N3S(=O)(=O)c2cccnc2)n1 [Example 1-15, (3-((6-methoxy-2-(methyl((1R,3s,5S)-9-(pyridin-3-ylsulfonyl)-9-azabicyclo[3.3.1]nonan-3-yl)amino)pyrimidin-4-yl)amino)-1H-pyrazol-5-yl)methanol]",,,,,,,B (B represents a pIC50 value between 6.7 and 7.5 (IC50 between 200 nM and 32 nM)),A (A represents a pKi value≥10 (Ki≤0.1 nM)),C (C represents a pKi value between 8 and 9 (Ki between 10 nM and 1 nM)),B (B represents a pKi value between 9 and 10 (Ki between 1 nM and 0.1 nM)),B (B represents a pKi value between 9 and 10 (Ki between 1 nM and 0.1 nM)),
"COc1cc(Nc2cc(CO)[nH]n2)nc(N(C)[C@@H]2C[C@H]3CCC[C@@H](C2)N3Cc2cncc(C#N)c2)n1 [Example 7, 5-(((1R,3s,5S)-3-((4-((5-(hydroxymethyl)-1H-pyrazol-3-yl)amino)-6-methoxypyrimidin-2-yl)(methyl)amino)-9-azabicyclo[3.3.1]nonan-9-yl)methyl)nicotinonitrile]",31.6 to 200,,0.1 to 1,0.1 to 1,,,,A (A represents a pKi value≥10 (Ki≤0.1 nM)),,,A (A represents a pKi value≥10 (Ki≤0.1 nM)),
"COc1cc(Nc2cc(CO)[nH]n2)nc(N(C)[C@@H]2C[C@H]3CCC[C@@H](C2)N3S(=O)(=O)N2CCC2)n1 [Example 1-17, (3-((2-(((1R,3s,5S)-9-(azetidin-1-ylsulfonyl)-9-azabicyclo[3.3.1]nonan-3-yl)(methyl)amino)-6-methoxypyrimidin-4-yl)amino)-1H-pyrazol-5-yl)methanol]",,,,,,,A (A represents a pIC50 value≥7.5 (IC50≤32 nM)),A (A represents a pKi value≥10 (Ki≤0.1 nM)),C (C represents a pKi value between 8 and 9 (Ki between 10 nM and 1 nM)),B (B represents a pKi value between 9 and 10 (Ki between 1 nM and 0.1 nM)),B (B represents a pKi value between 9 and 10 (Ki between 1 nM and 0.1 nM)),
"COc1cc(Nc2cc(CO)[nH]n2)nc(N(C)[C@@H]2C[C@H]3CCC[C@@H](C2)N3S(=O)(=O)N2CCCC2)n1 [Example 1-13, (3-((6-methoxy-2-(methyl((1R,3s,5S)-9-(pyrrolidin-1-ylsulfonyl)-9-azabicyclo[3.3.1]nonan-3-yl)amino)pyrimidin-4-yl)amino)-1H-pyrazol-5-yl)methanol]",,,,,,,A (A represents a pIC50 value≥7.5 (IC50≤32 nM)),A (A represents a pKi value≥10 (Ki≤0.1 nM)),B (B represents a pKi value between 9 and 10 (Ki between 1 nM and 0.1 nM)),B (B represents a pKi value between 9 and 10 (Ki between 1 nM and 0.1 nM)),A (A represents a pKi value≥10 (Ki≤0.1 nM)),
